Results taken from ChEMBL document CHEMBL4138094, “Discorhabdin alkaloids from Antarctic Latrunculia spp. sponges as a new class of cholinesterase inhibitors” (Eur J Med Chem, 2017).

Columns and labels:
Acetylcholinesterase [1] = molecular target: T1, Acetylcholinesterase (Homo sapiens, UniProt P22303); experiment: Inhibition of human AChE using acetylthiocholine iodide as substrate measured over 5 mins by Ellman's method
Acetylcholinesterase [2] = molecular target: T2, Acetylcholinesterase (Electrophorus electricus, UniProt O42275); experiment: Reversible competitive inhibition of electric eel AChE using acetylthiocholine iodide as substrate measured over 5 mins by Dixon plot analysis
Acetylcholinesterase [3] = molecular target: T2, Acetylcholinesterase; experiment: (§1) Inhibition of electric eel AChE using acetylthiocholine iodide as substrate measured over 5 mins by Ellman's method
[4] = molecular target: Acetylcholinesterase (Electrophorus electricus) (UniProt O42275); experiment: as §1
Cholinesterase [5] = molecular target: T3, Cholinesterase (Equus caballus, UniProt P81908); experiment: (§2) Reversible competitive inhibition of equine serum BChE using acetylthiocholine iodide as substrate measured over 5 mins by Ellman's method
[6] = molecular target: Cholinesterase (Equus caballus) (UniProt P81908); experiment: as §2
[7] = molecular target: Cholinesterase (Equus caballus) (UniProt P81908); settings: 1 mM
Description: Inhibition of equine serum BChE at 1 mM

[8] = Toxicity in Balb/c mouse hemidiaphragm assessed as effect on amplitude of indirectly evoked tetanic muscle contractions at 8.43 uM after 60 mins; type: tissue-based, Diaphragm; settings: 1 h
[9] = molecular target: Acetylcholinesterase (Electrophorus electricus) (UniProt O42275); experiment: Inhibition of electric eel AChE using acetylthiocholine iodide as substrate at 8.43 uM measured over 5 mins by Ellman's method relative to control
Cholinesterase [10] = molecular target: T3, Cholinesterase; experiment: Inhibition of equine serum BChE using acetylthiocholine iodide as substrate measured over 5 mins by Dixon plot analysis
[11] = Toxicity in Balb/c mouse hemidiaphragm assessed as effect on endplate potentials half decay after 30 to 60 mins mins in presence of conotoxin GIIIB; type: tissue-based, Diaphragm
Acetylcholinesterase [12] = molecular target: T1, Acetylcholinesterase; experiment: Reversible competitive inhibition of human AChE using acetylthiocholine iodide as substrate measured over 5 mins by Dixon plot analysis
[13] = Toxicity in Balb/c mouse hemidiaphragm assessed as effect on amplitude of endplate potentials after 30 to 60 mins mins in presence of conotoxin GIIIB; type: tissue-based, Diaphragm
[14] = Toxicity in Balb/c mouse hemidiaphragm assessed as effect on directly evoked muscle twitch amplitudes at 8.43 uM after 60 mins; type: tissue-based, Diaphragm; settings: 1 h
[15] = Toxicity in Balb/c mouse hemidiaphragm assessed as effect on indirectly evoked muscle twitch amplitudes at 8.43 uM after 60 mins; type: tissue-based, Diaphragm; settings: 1 h
[16] = Toxicity in Balb/c mouse hemidiaphragm assessed as effect on amplitude of directly evoked tetanic muscle contractions at 8.43 uM after 60 mins; type: tissue-based, Diaphragm; settings: 1 h

T1 sequence (P22303 whole entry): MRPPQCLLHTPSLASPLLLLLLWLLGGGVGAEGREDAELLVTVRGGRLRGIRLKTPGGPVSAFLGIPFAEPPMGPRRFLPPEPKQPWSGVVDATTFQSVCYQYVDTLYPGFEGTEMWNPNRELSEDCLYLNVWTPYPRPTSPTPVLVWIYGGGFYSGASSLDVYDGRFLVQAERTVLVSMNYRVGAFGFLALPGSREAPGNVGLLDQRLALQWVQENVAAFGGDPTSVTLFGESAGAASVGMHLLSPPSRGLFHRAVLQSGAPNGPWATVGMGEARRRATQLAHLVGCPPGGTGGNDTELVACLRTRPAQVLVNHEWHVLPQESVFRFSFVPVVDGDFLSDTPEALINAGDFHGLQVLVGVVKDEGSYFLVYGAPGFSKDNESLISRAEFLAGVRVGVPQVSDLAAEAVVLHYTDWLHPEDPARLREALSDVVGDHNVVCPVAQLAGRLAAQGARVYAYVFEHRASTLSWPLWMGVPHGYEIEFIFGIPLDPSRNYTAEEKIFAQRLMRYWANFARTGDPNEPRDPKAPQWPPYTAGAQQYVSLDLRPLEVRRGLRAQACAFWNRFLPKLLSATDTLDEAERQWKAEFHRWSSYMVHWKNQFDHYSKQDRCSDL
T3 sequence (P81908 whole entry): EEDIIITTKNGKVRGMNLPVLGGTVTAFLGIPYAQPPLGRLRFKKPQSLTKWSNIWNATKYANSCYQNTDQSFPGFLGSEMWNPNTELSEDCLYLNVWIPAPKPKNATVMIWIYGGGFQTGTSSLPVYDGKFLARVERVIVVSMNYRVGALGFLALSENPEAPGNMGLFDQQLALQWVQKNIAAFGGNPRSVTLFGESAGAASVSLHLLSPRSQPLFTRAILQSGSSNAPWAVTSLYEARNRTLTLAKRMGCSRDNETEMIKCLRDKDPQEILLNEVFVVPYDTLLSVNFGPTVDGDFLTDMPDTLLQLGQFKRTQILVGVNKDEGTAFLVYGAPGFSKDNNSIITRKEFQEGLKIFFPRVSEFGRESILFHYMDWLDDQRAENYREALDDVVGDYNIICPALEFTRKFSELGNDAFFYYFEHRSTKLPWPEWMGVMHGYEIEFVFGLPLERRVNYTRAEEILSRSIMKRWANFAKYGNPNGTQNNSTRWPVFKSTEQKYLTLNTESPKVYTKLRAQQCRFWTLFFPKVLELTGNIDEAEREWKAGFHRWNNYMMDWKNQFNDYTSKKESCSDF
Chain of Cholinesterase (Equus caballus) (P81908 whole entry): as above
Chain of Acetylcholinesterase (Electrophorus electricus) (O42275 24-633 limits assumed): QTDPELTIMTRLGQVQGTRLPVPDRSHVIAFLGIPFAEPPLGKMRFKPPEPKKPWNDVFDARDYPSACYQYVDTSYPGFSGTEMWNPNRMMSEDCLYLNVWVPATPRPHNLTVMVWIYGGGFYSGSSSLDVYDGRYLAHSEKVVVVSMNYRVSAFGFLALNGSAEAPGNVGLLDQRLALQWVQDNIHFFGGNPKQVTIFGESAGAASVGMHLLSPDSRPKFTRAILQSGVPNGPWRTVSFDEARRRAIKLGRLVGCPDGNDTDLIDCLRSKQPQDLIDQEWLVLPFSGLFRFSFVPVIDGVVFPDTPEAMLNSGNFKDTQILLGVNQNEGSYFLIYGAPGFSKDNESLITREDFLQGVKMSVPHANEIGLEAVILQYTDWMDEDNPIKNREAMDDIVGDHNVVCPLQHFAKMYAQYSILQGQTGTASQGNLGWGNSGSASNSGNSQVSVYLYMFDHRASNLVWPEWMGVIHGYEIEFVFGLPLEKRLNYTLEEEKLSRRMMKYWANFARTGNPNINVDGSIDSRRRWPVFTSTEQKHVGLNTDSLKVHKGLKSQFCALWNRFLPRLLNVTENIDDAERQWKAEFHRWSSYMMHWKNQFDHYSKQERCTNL
T2 sequence (O42275 whole entry): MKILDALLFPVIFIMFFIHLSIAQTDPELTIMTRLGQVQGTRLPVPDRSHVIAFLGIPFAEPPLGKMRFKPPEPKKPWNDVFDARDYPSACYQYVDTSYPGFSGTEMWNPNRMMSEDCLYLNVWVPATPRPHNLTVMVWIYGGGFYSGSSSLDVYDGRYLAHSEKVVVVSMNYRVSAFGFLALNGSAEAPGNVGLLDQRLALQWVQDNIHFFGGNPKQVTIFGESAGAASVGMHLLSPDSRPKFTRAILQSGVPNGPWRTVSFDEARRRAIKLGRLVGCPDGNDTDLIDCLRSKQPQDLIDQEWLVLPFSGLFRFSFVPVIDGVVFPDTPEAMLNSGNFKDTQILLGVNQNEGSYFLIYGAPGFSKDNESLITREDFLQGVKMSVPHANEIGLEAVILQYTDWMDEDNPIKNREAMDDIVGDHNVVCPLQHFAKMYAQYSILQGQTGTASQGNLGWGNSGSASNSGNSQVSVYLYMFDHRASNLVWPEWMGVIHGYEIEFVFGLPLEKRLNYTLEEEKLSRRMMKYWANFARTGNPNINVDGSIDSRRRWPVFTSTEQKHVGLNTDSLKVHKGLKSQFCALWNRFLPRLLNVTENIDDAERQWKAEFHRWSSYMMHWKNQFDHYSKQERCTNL

| SMILES | IC50 (Acetylcholinesterase [1]) | inhibition (Acetylcholinesterase [1]) | Ki (Acetylcholinesterase [2]) | IC50 (Acetylcholinesterase [3]) | inhibition [4] | IC50 (Cholinesterase [5]) | inhibition [6] | inhibition [7] | Activity [8] | inhibition [9] | Ki (Cholinesterase [10]) | Activity [11] | Ki (Acetylcholinesterase [12]) | Activity [13] | Activity [14] | Activity [15] | Activity [16] |
| --- | --- | --- | --- | --- | --- | --- | --- | --- | --- | --- | --- | --- | --- | --- | --- | --- | --- |
| O=C1C2=C3C4=[N+](CCc5c[nH]c1c54)[C@@H]1C(=O)C=C4S[C@@H](C[C@@]43[C@H]1O)N2 [DISCORHABDIN L] | 158 µM | Dose-dependent effect | 15 µM | 25.7 µM | Dose-dependent effect | 531 µM | Dose-dependent effect | – | – | – | – | – | – | – | – | – | – |
| CNC(=O)Oc1ccc2c(c1)[C@]1(C)CCN[C@@H]1N2 | 14.5 µM | – | – | 3 µM | – | 28.5 µM | – | – | – | – | – | – | – | – | – | – | – |
| COc1ccc2c3c1O[C@H]1C[C@@H](O)C=C[C@@]31CCN(C)C2 | – | – | – | – | – | – | – | 80.3% | – | – | – | – | – | – | – | – | – |
| O=C(O)C(F)(F)F.O=C1CC[C@@]2(C=CNC3=C2C2=NCCc4c[nH]c(c42)C3=O)C=C1Br | 116 µM | Dose-dependent effect | 1.6 µM | 1.3 µM | Dose-dependent effect | 7 µM | Dose-dependent effect | – | Non-Toxic | 80% | 5 µM | Non-Toxic | 56.2 µM | Non-Toxic | Non-Toxic | Non-Toxic | Non-Toxic |
| O=C1C2=C(C3=NCCc4c[nH]c1c43)C1(C=CN2)C=C(Br)C(O)C(Br)=C1 (stereo not given) | 152 µM | Dose-dependent effect | 3.5 µM | 14.5 µM | Dose-dependent effect | 15.8 µM | Dose-dependent effect | – | – | – | 17.5 µM | – | 98 µM | – | – | – | – |
| O=C1C=C2S[C@H]3C[C@]2(C=C1Br)C1=C(N3)C(=O)c2[nH]cc3c2C1=NCC3 [DISCORHABDIN B] | 49.4 µM | Dose-dependent effect | 1.9 µM | 5.7 µM | Dose-dependent effect | 137 µM | Dose-dependent effect | – | – | – | 76 µM | – | 22.8 µM | – | – | – | – |
